Results published in article PMC11124413, “Synthesis, Antibacterial Effects, and Toxicity of Licochalcone C” (Pharmaceuticals, 2024).
Converted amounts (≈) assume the structure as drawn. Read-outs that look alike come from different tables or passages of the source.

Key:
[1] = test system: E. coli respiratory chain; design: method as in PMID 9621457; details: cited from earlier work
MSSA (ATCC 6538) = assay: MIC, broth microdilution with resazurin; type: cell-based; details: Staphylococcus aureus (MSSA), mean of triplicates
[2] = test system: Galleria mellonella larvae; assay: Systemic toxicity in Galleria mellonella larvae; type: in vivo
Description: The systemic toxicity assay was performed to evaluate the acute toxic effects of LCC, following the procedures described by Megaw [63]. For the experiment, 10 healthy larvae from G. mellonella were randomly selected for each concentration test, with a weight range between 0.2 g and 0.3 g and without melanization aspects. The larvae were chilled on ice for 20 min and had their prolegs cleaned with 70% ethanol. […] Five microliters of the solution were injected into the hemocoel of each larva through the last left proleg using a 25 µL Hamilton syringe. After the administration, the larvae were incubated at 37 °C and their survival was monitored in selected intervals over 72 h. The larvae unable to move when touched and showing elevated levels of melanization were counted as dead. Experiments were performed in triplicate.

E. faecalis (ATCC 1299) = assay: MIC, broth microdilution with resazurin; type: cell-based; details: ATCC1299; Enterococcus faecalis; mean of triplicates
MSSA biofilm = assay: Antibiofilm assay (biofilm formation); type: cell-based, S. aureus
S. mutans (ATCC 25175) = assay: MIC, broth microdilution with resazurin; type: cell-based; details: ATCC25175; Streptococcus mutans; mean of triplicates
NADH-CoQ reductase = molecular target: NADH-CoQ reductase; design: method as in PMID 9621457; details: cited from earlier work
MSSA planktonic cells = assay: Checkerboard assay; type: cell-based, S. aureus
Description: (§1) The combinations of LCC with tetracycline and vancomycin were evaluated against MSSA and MRSA, respectively, using a microdilution broth checkerboard assay, according to White and collaborators, adapted with the standard procedure established by the CLSI [51, 54]. The fractional inhibitory concentration (FIC) of the combination between LCC and tetracycline or vancomycin was determined using Mueller–Hinton broth culture medium into 96-well plates, with a final inoculum suspension of 5.0 × 10^5 CFU/mL, incubated at 37 °C for 24 h. After incubation, an aqueous resazurin solution (0.02%) was added to the wells and the FIC values (ratio between the MIC of the drug in combination and the MIC of the drug alone) were determined for each drug (Equations (1) and (2)). The fractional inhibitory concentration index (FICI) was calculated using Equation (3). (1) FICLCC=MIC of drug A in combination/MIC of drug A alone (2) FICD=MIC of drug B in combination/MIC of drug B alone FIC Index (FICI) = FICLCC + FICD(3)
(§2) The combination was classified as synergistic (FICI ≤ 0.5), indifferent (0.5 < FICI < 4), and antagonistic (FICI ≥ 4). The assays were performed in triplicate in independent experiments.

MRSA planktonic cells = assay: Checkerboard assay; type: cell-based, S. aureus
Description: as §1, §2

MCF7 (breast) = test system: MCF7 (breast); design: method as in PMID 26397392; details: at 45 µg/mL; cited from earlier work
[3] = test system: S. pneumoniae (ATCC 6305); assay: MIC, broth microdilution with resazurin; type: cell-based; details: ATCC6305; Streptococcus pneumoniae; mean of triplicates
M. kansasii (ATCC 12478) = assay: Antimycobacterial MIC, resazurin microtiter assay; type: cell-based; details: ATCC12478; Mycobacterium kansasii; mean of triplicates
HepG2 (liver) = test system: HepG2 (liver); design: method as in PMID 32578448; details: read-out: IC50 (proliferation); cited from earlier work
[4] = molecular target: NADH-cytochrome c reductase; design: method as in PMID 9621457; details: cited from earlier work
[5] = test system: K. pneumoniae (ATCC 23883); assay: MIC, broth microdilution with resazurin; type: cell-based; details: Klebsiella pneumoniae, mean of triplicates
[6] = test system: S. epidermidis (ATCC 14990); assay: MIC, broth microdilution with resazurin; type: cell-based; details: ATCC14990; Staphylococcus epidermidis; mean of triplicates
[7] = test system: M. tuberculosis (ATCC 27294); assay: Antimycobacterial MIC, resazurin microtiter assay; type: cell-based; details: ATCC27294; Mycobacterium tuberculosis; mean of triplicates
KYSE 510 (esophageal) = test system: KYSE 510 (esophageal); design: method as in PMID 32009586; details: read-out: IC50 (proliferation); cited from earlier work
[8] = test system: Escherichia coli (ATCC 25922); assay: MIC, broth microdilution with resazurin; type: cell-based
HCT116 (colorectal) = test system: HCT116 (colorectal); design: method as in PMID 38148556; details: read-out: IC50 (proliferation); cited from earlier work
HN22 (oral) = test system: HN22 (oral); design: method as in PMID 30129052; details: read-out: IC50 (proliferation); cited from earlier work
[9] = test system: P. aeruginosa (ATCC 27853); assay: MIC, broth microdilution with resazurin; type: cell-based; details: Pseudomonas aeruginosa, mean of triplicates
NADH-oxidase = molecular target: NADH-oxidase; design: method as in PMID 9621457; details: cited from earlier work
MRSA biofilm = assay: Antibiofilm assay (biofilm formation); type: cell-based, S. aureus
[10] = test system: S. sanguinis (ATCC 10556); assay: MIC, broth microdilution with resazurin; type: cell-based; details: ATCC10556; Streptococcus sanguinis; mean of triplicates
KYSE 70 (esophageal) = test system: KYSE 70 (esophageal); design: method as in PMID 32009586; details: read-out: IC50 (proliferation); cited from earlier work
S. sobrinus (ATCC 33478) = assay: MIC, broth microdilution with resazurin; type: cell-based; details: ATCC33478; Streptococcus sobrinus; mean of triplicates
KYSE 30 (esophageal) = test system: KYSE 30 (esophageal); design: method as in PMID 32009586; details: read-out: IC50 (proliferation); cited from earlier work
T24 (bladder) = test system: T24 (bladder); design: method as in PMID 26397392; details: at 45 µg/mL; cited from earlier work
H. pylori (ATCC 43526) = assay: MIC, broth microdilution with resazurin; type: cell-based; details: Helicobacter pylori, mean of triplicates

SMILES: COc1c(/C=C/C(=O)c2ccc(O)cc2)ccc(O)c1CC=C(C)C [LCC, licochalcone C]
- inhibition of respiratory chain [1]: did not inhibit
- MIC (MSSA (ATCC 6538)): 12.5 µg/mL (≈ 36.9 µM)
- MIC (MSSA (ATCC 6538); read-out: MIC): 12.5 µg/mL (≈ 36.9 µM)
- lethality to larvae ([2]; 100 µg/mL after 80 h treatment): not lethal
- larvae survival ([2]; LCC at 12.5, 25, 50, and 100 µg/mL, over a period of 72 h): 100%
- MIC (E. faecalis (ATCC 1299)): 50 µg/mL (≈ 148 µM)
- inhibition of biofilm formation (MSSA biofilm): 75%
- MBIC50 (minimum biofilm inhibitory concentration) (MSSA biofilm; MSSA biofilm formation): 6.25 µg/mL
- MIC (S. mutans (ATCC 25175)): 12.5 µg/mL (≈ 36.9 µM)
- IC50 (NADH-CoQ reductase): > 100 µM
- MIC (MSSA planktonic cells; Staphylococcus aureus, checkerboard, drug alone): 12.5 µg/mL
- MIC Combined (MSSA planktonic cells; checkerboard, in combination LCC + TC): 3.12 µg/mL
- FICLCC (fractional inhibitory concentration for LCC) (MSSA planktonic cells; combination LCC + TC): 0.25
- MIC (MRSA planktonic cells; Staphylococcus aureus, checkerboard, drug alone, read-out: MIC Alone): 12.5 µg/mL
- MIC Combined (MRSA planktonic cells; checkerboard, in combination LCC + VAN): 6.25 µg/mL
- FICLCC (fractional inhibitory concentration for LCC) (MRSA planktonic cells; combination LCC + VAN): 0.5
- proliferation inhibition (MCF7 (breast)): 47%
- MIC [3]: 50 µg/mL (≈ 148 µM)
- MIC (M. kansasii (ATCC 12478)): 125 µg/mL (≈ 369 µM)
- IC50 (HepG2 (liver)): 50.8 µM
- IC50 [4]: 29.6 µM
- MIC ([5]; ATCC23883, read-out: MIC): > 400 µg/mL
- MIC [5]: >400 µg/mL
- MIC [6]: 6.2 µg/mL (≈ 18.3 µM)
- MIC [7]: 31.2 µg/mL (≈ 92.2 µM)
- IC50 (KYSE 510 (esophageal)): 26 µM
- MIC ([8]; ATCC25922, mean of triplicates, read-out: MIC): > 400 µg/mL
- MIC ([8]; mean of triplicates): >400 µg/mL
- IC50 (HCT116 (colorectal)): 16.6 µM
- IC50 (HN22 (oral)): 23.8 µM
- MIC ([9]; ATCC27853, read-out: MIC): > 400 µg/mL
- MIC [9]: >400 µg/mL
- IC50 (NADH-oxidase): 3 µM
- MBIC50 (minimum biofilm inhibitory concentration) (MRSA biofilm; MRSA biofilm formation): 6.25 µg/mL
- inhibition of biofilm formation (MRSA biofilm; MRSA, at MBIC50 (6.25 μg/mL)): 87%
- MIC [10]: 6.2 µg/mL (≈ 18.3 µM)
- IC50 (KYSE 70 (esophageal)): 36 µM
- MIC (S. sobrinus (ATCC 33478)): 12.5 µg/mL (≈ 36.9 µM)
- IC50 (KYSE 30 (esophageal)): 28 µM
- proliferation inhibition (T24 (bladder)): 68%
- MIC (H. pylori (ATCC 43526); ATCC43526, read-out: MIC): 25 µg/mL (≈ 73.9 µM)
- MIC (H. pylori (ATCC 43526)): 25 µg/mL (≈ 73.9 µM)
